{"source": "ChEMBL document CHEMBL5212743", "about": "“Selectivity Literature for EUbOPEN Chemogenomics Library wave 3” (2023)", "key": {"[1]": {"biological_target": "Mitogen-activated protein kinase 10 (Homo sapiens, UniProt P53779)", "sequence (P53779 whole entry)": "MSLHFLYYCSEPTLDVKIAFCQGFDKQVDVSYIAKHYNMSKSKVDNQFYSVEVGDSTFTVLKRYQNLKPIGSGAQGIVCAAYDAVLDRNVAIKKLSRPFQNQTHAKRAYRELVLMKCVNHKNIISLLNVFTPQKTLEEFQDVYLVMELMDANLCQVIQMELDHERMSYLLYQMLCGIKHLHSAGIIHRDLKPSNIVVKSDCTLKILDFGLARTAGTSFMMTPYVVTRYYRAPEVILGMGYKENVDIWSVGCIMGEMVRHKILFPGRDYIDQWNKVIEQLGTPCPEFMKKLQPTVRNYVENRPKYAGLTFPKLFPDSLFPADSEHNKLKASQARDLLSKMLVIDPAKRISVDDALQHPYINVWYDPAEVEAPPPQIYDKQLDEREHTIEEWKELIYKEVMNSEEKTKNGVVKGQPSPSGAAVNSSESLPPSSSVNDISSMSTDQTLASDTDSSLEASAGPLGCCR", "test": "Selectivity interaction (KinomeScan (DiscoverX, competition-binding assay)) EUB0000353a MAPK10"}, "[2]": {"biological_target": "Mitogen-activated protein kinase 8 (Homo sapiens, UniProt P45983)", "sequence (P45983 whole entry)": "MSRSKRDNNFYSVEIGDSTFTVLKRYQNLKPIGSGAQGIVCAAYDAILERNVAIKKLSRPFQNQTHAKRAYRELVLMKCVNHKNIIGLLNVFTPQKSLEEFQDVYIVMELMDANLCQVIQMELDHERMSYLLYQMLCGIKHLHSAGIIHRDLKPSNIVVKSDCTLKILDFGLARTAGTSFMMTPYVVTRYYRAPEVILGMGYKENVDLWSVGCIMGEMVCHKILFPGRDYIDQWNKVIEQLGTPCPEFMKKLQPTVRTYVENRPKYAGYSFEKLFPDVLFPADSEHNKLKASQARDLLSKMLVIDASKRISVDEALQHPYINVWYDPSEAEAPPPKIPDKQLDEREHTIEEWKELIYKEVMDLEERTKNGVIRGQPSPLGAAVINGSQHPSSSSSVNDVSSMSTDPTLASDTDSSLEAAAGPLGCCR", "test": "Selectivity interaction (KinomeScan (DiscoverX, competition-binding assay)) EUB0000353a MAPK8"}, "[3]": {"biological_target": "Tyrosine-protein kinase BTK (Homo sapiens, UniProt Q06187)", "sequence (Q06187 whole entry)": "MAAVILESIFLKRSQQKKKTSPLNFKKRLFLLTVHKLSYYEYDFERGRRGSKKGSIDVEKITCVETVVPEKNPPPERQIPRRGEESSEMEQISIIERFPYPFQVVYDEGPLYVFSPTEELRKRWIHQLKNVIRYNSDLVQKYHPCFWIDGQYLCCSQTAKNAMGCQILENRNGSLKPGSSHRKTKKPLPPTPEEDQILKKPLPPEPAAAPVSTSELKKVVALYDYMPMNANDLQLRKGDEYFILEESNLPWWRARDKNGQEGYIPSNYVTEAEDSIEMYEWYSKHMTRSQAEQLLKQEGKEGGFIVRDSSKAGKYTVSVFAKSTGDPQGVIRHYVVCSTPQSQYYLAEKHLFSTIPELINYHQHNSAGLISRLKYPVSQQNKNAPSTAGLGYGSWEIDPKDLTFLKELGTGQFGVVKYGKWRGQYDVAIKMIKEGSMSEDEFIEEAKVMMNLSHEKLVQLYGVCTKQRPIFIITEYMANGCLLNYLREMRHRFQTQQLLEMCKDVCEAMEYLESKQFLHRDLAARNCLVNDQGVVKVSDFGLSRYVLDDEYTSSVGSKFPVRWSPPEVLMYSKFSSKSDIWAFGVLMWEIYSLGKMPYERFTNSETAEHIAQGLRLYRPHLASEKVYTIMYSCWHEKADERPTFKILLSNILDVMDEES", "test": "Selectivity interaction (KinomeScan (DiscoverX, competition-binding assay)) EUB0000353a BTK"}, "[4]": {"biological_target": "T1, Alpha-1A adrenergic receptor (Homo sapiens, UniProt P35348)", "T1 sequence (P35348 whole entry)": "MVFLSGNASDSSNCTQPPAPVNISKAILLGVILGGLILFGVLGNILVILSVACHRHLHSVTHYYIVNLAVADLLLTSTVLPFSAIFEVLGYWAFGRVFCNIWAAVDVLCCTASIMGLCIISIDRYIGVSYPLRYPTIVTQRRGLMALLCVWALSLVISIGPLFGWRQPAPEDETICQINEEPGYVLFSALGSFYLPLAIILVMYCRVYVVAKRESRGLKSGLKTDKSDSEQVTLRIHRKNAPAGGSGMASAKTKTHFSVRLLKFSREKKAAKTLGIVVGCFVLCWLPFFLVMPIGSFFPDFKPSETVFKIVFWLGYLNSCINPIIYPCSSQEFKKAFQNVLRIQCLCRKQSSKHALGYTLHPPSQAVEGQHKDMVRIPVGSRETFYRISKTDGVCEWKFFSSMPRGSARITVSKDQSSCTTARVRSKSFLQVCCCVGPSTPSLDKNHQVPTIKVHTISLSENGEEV", "test": "Selectivity interaction (Binding assay) EUB0000341aCl ADRA1A"}, "[5]": {"biological_target": "T2, Alpha-1A adrenergic receptor (Homo sapiens) (UniProt P35348)", "T2 sequence (whole entry)": "T1 sequence (P35348 whole entry)", "conditions": "at 10 µM"}, "[6]": {"biological_target": "Alpha-1D adrenergic receptor (Homo sapiens) (UniProt P25100)", "sequence (P25100 whole entry)": "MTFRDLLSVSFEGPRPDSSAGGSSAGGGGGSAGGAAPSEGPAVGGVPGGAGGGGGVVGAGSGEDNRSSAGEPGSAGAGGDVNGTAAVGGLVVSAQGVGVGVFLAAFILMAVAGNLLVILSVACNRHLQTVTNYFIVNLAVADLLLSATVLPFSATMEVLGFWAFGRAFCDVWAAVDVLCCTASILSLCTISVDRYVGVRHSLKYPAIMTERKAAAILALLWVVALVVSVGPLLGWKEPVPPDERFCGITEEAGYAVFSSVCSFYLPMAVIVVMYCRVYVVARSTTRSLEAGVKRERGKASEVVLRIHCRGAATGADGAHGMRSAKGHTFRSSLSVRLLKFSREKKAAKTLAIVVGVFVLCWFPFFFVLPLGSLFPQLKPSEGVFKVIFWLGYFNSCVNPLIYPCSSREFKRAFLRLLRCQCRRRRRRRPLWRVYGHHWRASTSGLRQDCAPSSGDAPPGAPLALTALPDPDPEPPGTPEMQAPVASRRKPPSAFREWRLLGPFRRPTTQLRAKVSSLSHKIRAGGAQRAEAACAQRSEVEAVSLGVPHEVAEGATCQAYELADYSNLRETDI", "conditions": "at 10 µM"}, "[7]": {"biological_target": "T3, Alpha-1B adrenergic receptor (Homo sapiens, UniProt P35368)", "T3 sequence (P35368 whole entry)": "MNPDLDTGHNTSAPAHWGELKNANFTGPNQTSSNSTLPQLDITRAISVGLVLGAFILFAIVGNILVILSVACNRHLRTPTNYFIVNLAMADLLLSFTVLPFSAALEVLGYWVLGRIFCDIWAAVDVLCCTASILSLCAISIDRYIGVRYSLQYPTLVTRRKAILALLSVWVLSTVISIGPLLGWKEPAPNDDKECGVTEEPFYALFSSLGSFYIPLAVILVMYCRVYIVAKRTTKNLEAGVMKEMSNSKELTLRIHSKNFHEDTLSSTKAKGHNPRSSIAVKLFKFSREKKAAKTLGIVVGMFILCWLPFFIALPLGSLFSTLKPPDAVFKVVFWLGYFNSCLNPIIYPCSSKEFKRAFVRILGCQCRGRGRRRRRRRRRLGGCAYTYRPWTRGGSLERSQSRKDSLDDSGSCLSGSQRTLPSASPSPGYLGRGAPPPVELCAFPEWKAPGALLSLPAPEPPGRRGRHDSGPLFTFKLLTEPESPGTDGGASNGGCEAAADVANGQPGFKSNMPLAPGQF", "test": "Selectivity interaction (Binding assay) EUB0000341aCl ADRA1B"}, "[8]": {"biological_target": "NT-3 growth factor receptor (Homo sapiens, UniProt Q16288)", "sequence (Q16288 32-839 limits assumed)": "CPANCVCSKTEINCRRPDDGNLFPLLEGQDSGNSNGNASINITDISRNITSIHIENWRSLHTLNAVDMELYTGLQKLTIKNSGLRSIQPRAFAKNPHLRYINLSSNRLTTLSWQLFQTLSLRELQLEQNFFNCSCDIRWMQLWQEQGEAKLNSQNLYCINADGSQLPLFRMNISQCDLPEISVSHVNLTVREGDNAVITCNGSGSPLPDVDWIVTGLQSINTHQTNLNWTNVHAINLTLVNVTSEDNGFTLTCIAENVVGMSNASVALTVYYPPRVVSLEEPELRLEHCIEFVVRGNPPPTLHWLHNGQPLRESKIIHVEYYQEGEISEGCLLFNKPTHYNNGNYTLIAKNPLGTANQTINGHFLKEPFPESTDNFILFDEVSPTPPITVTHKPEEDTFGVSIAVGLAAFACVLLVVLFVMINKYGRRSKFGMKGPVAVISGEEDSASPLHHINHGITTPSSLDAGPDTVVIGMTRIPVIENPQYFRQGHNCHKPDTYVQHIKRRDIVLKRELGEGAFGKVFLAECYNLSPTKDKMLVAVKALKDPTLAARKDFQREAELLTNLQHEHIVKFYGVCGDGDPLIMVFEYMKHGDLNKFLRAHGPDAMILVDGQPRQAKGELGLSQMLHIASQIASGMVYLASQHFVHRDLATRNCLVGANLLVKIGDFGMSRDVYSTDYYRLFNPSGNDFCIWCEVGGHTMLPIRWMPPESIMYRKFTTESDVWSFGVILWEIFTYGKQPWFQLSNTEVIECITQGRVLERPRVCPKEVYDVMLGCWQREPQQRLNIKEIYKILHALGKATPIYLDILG", "test": "Selectivity interaction (KinomeScan (DiscoverX)) EUB0000341aCl NTRK3", "conditions": "at 1 µM"}, "[9]": {"biological_target": "Dual specificity tyrosine-phosphorylation-regulated kinase 1B (Homo sapiens, UniProt Q9Y463)", "sequence (Q9Y463 whole entry, looked up)": "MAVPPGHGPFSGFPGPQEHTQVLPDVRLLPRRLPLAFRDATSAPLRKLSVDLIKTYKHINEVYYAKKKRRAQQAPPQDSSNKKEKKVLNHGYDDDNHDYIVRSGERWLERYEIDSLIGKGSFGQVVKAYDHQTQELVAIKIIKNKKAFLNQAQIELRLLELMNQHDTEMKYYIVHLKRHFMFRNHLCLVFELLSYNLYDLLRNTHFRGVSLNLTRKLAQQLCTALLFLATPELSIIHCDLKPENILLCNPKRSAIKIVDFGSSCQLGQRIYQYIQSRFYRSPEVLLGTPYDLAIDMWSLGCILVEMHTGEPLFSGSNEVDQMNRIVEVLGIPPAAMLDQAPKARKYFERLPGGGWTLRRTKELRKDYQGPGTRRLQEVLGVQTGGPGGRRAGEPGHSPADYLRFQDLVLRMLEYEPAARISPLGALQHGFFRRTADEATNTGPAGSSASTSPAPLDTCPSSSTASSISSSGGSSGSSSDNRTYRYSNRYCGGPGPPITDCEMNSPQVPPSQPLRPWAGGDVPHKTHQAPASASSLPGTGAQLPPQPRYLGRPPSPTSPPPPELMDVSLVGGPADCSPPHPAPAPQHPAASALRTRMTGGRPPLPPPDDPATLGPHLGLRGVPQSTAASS", "test": "Selectivity interaction (KinomeScan (DiscoverX)) EUB0000341aCl DYRK1B", "conditions": "at 1 µM"}, "[10]": {"system": "Tyrosine-protein kinase ABL1 (Homo sapiens), P00519 [F317L]", "test": "(§1) Selectivity interaction (KinomeScan (DiscoverX)) EUB0000341aCl ABL1", "conditions": "at 1 µM"}, "[11]": {"system": "Tyrosine-protein kinase ABL1 (Homo sapiens), P00519 [T315I]", "test": "as §1", "conditions": "at 1 µM"}, "[12]": {"system": "Tyrosine-protein kinase ABL1 (Homo sapiens), P00519 [M351T]", "test": "as §1", "conditions": "at 1 µM"}}, "data": [{"molecule": "CN(C)[C@@H]1CCN(c2cc(-c3ccccc3)nc3ccnn23)C1", "note": "[(R)-ZINC-3573]", "values": [{"measurement": "Kd", "setting": "[1]", "result": "> 30", "unit": "µM"}, {"measurement": "Kd", "setting": "[2]", "result": 19, "unit": "µM"}, {"measurement": "Kd", "setting": "[3]", "result": 27, "unit": "µM"}]}, {"molecule": "C[C@@H](c1cccc(C#N)c1)n1cc(Cl)cc(C(N)=O)c1=N", "values": [{"measurement": "IC50", "setting": "[4]", "result": 2.7, "unit": "µM"}, {"measurement": "% of inhibition", "setting": "[5]", "result": 55, "unit": "%"}, {"measurement": "% of inhibition", "setting": "[6]", "result": 61, "unit": "%"}, {"measurement": "IC50", "setting": "[7]", "result": 1.2, "unit": "µM"}, {"measurement": "% of control", "setting": "[8]", "result": 0, "unit": "%"}, {"measurement": "% of control", "setting": "[9]", "result": 37, "unit": "%"}, {"measurement": "% of control", "setting": "[10]", "result": 0, "unit": "%"}, {"measurement": "% of control", "setting": "[11]", "result": 0, "unit": "%"}, {"measurement": "% of control", "setting": "[12]", "result": 0, "unit": "%"}]}]}
